# Data: US5928932A, “Isolated gene encoding an enzyme with UDP-glucose pyrophosphorylase and phosphoglucomutase activities from Cyclotella cryptica” (priority 1996, dated 1999)
# Target: T1, purified UGPase/PGMase protein (Cyclotella cryptica, UniProt A0ABD3PLY7)
# T1 construct: both domains act
# Type: biochemical
# Settings: determined via double reciprocal plots; glucose-6-phosphate versus glucose-1-phosphate as substrate
# Description: P-4252) were added to each reaction and incubated for one hour at 30° C. The reaction mixtures were spotted onto separate 2.5 cm DE81 filter disks (Whatman Inc.; Fairfield, N.J.), which were then washed in five consecutive batches of water (200 mL each). The radioactivity of each filter was determined by liquid scintillation counting.
# T1 sequence (A0ABD3PLY7 entry or part of it R291K): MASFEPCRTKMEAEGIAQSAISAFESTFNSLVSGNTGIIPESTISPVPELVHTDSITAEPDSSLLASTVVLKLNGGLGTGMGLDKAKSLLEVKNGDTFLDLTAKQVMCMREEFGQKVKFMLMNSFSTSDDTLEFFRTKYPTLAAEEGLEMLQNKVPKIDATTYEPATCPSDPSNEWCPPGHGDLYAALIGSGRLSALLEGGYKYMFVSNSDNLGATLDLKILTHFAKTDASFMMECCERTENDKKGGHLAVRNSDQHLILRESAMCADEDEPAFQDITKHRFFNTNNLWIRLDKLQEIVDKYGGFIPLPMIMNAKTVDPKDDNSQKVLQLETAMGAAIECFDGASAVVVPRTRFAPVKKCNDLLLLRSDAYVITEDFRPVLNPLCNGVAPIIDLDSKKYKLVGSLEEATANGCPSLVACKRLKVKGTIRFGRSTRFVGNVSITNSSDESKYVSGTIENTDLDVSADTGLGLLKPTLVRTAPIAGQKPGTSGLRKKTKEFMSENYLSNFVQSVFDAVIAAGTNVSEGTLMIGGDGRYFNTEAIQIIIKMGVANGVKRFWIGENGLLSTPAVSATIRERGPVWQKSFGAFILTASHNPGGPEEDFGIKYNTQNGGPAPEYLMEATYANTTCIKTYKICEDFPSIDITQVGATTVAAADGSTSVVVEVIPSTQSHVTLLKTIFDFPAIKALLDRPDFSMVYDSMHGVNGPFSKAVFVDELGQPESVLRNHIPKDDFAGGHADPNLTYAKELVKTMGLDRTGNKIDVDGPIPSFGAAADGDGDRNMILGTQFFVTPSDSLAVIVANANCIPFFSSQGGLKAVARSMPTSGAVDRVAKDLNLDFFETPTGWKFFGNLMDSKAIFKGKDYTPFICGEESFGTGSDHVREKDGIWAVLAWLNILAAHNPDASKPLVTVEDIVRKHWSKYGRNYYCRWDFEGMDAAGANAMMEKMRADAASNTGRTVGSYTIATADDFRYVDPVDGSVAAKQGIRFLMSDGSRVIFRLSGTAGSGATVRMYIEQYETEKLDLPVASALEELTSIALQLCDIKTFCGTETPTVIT
smiles,measurement,value
O=P(O)(O)OC[C@H]1OC(O)[C@H](O)[C@@H](O)[C@@H]1O (stereo partly shown) [glucose-6-phosphate],"maximum velocity of UDP-glucose formation, fold less than for glucose-1-phosphate",13 fold
